Reference: patent US9486394B2, “Pharmaceutical foam” (STIEFEL WEST COAST, LLC, priority 2003, dated 2016)

Key:
[1] = Stability, citrate buffer pH, epoxy-phenolic lined cans (Example 1); conditions: 1 month
Procedure: In this study, a citrate buffer solution was used to adjust the pH of the mixture to pH 4.5, pH 5.5, and pH 6.5 using four different buffer concentrations (i.e., 0, 0.1, 0.3, 0.5%) and two alternative emollients or humectants, i.e., propylene glycol and glycerin. The containers were stored at 50° C. for 1 month and then examined.

[2] = Stability with different can linings (Example 2); assay type: physicochemical; conditions: 4 weeks
Procedure: Low buffer levels at a pH of 4.5 or 6.5, including unbuffered pH 4.5, were tested in cans with either epoxy-phenolic, polyamide-imide (PAM), or Micoflex linings. Some of the PAM-lined cans were scratched internally to check for corrosion on bare aluminum. Cans were stored at 4° C., 40° C., and 50° C. for 4 weeks and then examined.

CCC[C@@H]1C[C@@H](C(=O)N[C@@H]([C@H]2O[C@H](SC)[C@H](OP(=O)(O)O)[C@@H](O)[C@H]2O)[C@H](C)Cl)N(C)C1 [clindamycin phosphate]
clindamycin phosphate degradation at higher buffer levels ([1]; citrate buffer 0.5%, 0.3% vs 0.1%, 0.0%, 50° C.): higher amount of clindamycin phosphate degradation
stability of clindamycin phosphate as a function of pH ([1]; pH 4.5, 5.5, 6.5, 50° C., FIG. 3): more stable at a lower pH level
clindamycin phosphate stability in PAM-lined container ([2]; FIG. 4): unexpectedly high
degradation of clindamycin phosphate ([2]; 40° C.): moderate degradation
degradation of clindamycin phosphate ([2]; 50° C.): relatively severe degradation
